{"source": "patent US20100323978A1", "about": "“Non-aqueous oil delivery system for ophthalmic drugs” (priority 2009, published 2010)", "origin": "cited, not measured here", "key": {"[1]": {"details": "warning label"}, "rabbits": {"test_system": "rabbits", "details": "10 micro Liters eye drop"}, "rabbit eyes": {"test_system": "rabbit eyes", "details": "aqueous suspension injected into the eyes for three days"}, "[2]": {"details": "0.15 Molar suspended in sesame seed oil"}}, "note": "Structures can show the parent of a compound that is named as a salt. Where two headings read alike, the source gives them in different places."}
{"compound": "CN(C)CCOC(=O)C(c1ccccc1)C1(O)CCCC1", "note": "(centres unmarked) [Cyclopentolate HCl]", "values": [{"measurement": "stability of powder", "setting": "[1]", "result": "not stable at room temperature"}]}
{"compound": "CNC[C@H](O)c1cccc(O)c1", "note": "[phenylephrine HCl]", "values": [{"measurement": "mydriasis in the rabbit", "setting": "rabbits; [2]", "result": "ineffective"}, {"measurement": "mydriasis in the rabbit", "setting": "rabbits; 0.5 Molar suspended in sesame seed oil", "result": "slightly effective"}]}
{"compound": "CNC[C@H](O)c1cccc(O)c1", "note": "[phenylephrine free base]", "values": [{"measurement": "mydriasis in the rabbit", "setting": "rabbits; [2]", "result": "produced mydriasis"}]}
{"compound": "alpha-hydroxy-testosterone", "values": [{"measurement": "intra-ocular pressure", "setting": "rabbit eyes", "result": "decreased"}]}
